Test system: recombinant NL4-3 virus (Renilla luciferase in nef, Gag P373S; NLRluc) in MT-2 cells
Assay: whole plant or invertebrate
Type: cell-based, HIV
Conditions: Renilla, NL43, luciferase activity in cells infected for 4-5 days with NLRluc recombinants, serial dilutions of inhibitor; class symbols (key in Table 1); read-out: EC50
Summary of the method: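 Cells grown in serum-supplemented RPMI were exposed to graded inhibitor concentrations during a 4-5 day infection. Antiviral effect was then derived from luminescence after adding a combined lysis and dual-luciferase substrate mixture to each well.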

Structure (SMILES) | EC50
C=C(C)[C@@H]1CC[C@]2(NC(=O)CN3CCCCC3C)CC[C@]3(C)[C@H](CC[C@@H]4[C@@]5(C)CC=C(c6ccc(C(=O)O)cc6)C(C)(C)[C@@H]5CC[C@]43C)[C@@H]12 (stereo partly drawn) [Example 124, 4-((1R,3aS,5aR,5bR,7aR,11aS,11bR,13aR,13bR)-5a,5b,8,8,11a-pentamethyl-3a-(2-(2-methylpiperidin-1-yl)acetamido)-1-(prop-1-en-2-yl)-2,3,3a,4,5,5a,5b,6,7,7a,8,11,11a,11b,12,13,13a,13b-octadecahydro-1H-cyclopenta[a]chrysen-9-yl)benzoic acid] | < 100 nM
C=C(C)[C@@H]1CC[C@]2(NC(=O)CNc3ccc(F)cc3)CC[C@]3(C)[C@H](CC[C@@H]4[C@@]5(C)CC=C(c6ccc(C(=O)O)cc6)C(C)(C)[C@@H]5CC[C@]43C)[C@@H]12 [Example 125, 4-((1R,3aS,5aR,5bR,7aR,11aS,11bR,13aR,13bR)-3a-(2-(4-fluorophenylamino)acetamido)-5a,5b,8,8,11a-pentamethyl-1-(prop-1-en-2-yl)-2,3,3a,4,5,5a,5b,6,7,7a,8,11,11a,11b,12,13,13a,13b-octadecahydro-1H-cyclopenta[a]chrysen-9-yl)benzoic acid] | < 100 nM
C=C(C)[C@@H]1CC[C@]2(NC(=O)Cc3ncccn3)CC[C@]3(C)[C@H](CC[C@@H]4[C@@]5(C)CC=C(c6ccc(C(=O)O)cc6)C(C)(C)[C@@H]5CC[C@]43C)[C@@H]12 [Example 126, 4-((1R,3aS,5aR,5bR,7aR,11aS,11bR,13aR,13bR)-5a,5b,8,8,11a-pentamethyl-1-(prop-1-en-2-yl)-3a-(2-(pyrimidin-2-yl)acetamido)-2,3,3a,4,5,5a,5b,6,7,7a,8,11,11a,11b,12,13,13a,13b-octadecahydro-1H-cyclopenta[a]chrysen-9-yl)benzoic acid] | < 100 nM
C=C(C)[C@@H]1CC[C@]2(NC(=O)Cc3ccccn3)CC[C@]3(C)[C@H](CC[C@@H]4[C@@]5(C)CC=C(c6ccc(C(=O)O)cc6)C(C)(C)[C@@H]5CC[C@]43C)[C@@H]12 [Example 127, 4-((1R,3aS,5aR,5bR,7aR,11aS,11bR,13aR,13bR)-5a,5b,8,8,11a-pentamethyl-1-(prop-1-en-2-yl)-3a-(2-(pyridin-2-yl)acetamido)-2,3,3a,4,5,5a,5b,6,7,7a,8,11,11a,11b,12,13,13a,13b-octadecahydro-1H-cyclopenta[a]chrysen-9-yl)benzoic acid] | < 100 nM
CC(C)[C@@H]1CC[C@]2(NC(=O)CN3CCS(=O)(=O)CC3)CC[C@]3(C)[C@H](CC[C@@H]4[C@@]5(C)CC=C(c6ccc(C(=O)O)cc6)C(C)(C)[C@@H]5CC[C@]43C)[C@@H]12 [Example 129, 4-((1S,3aS,5aR,5bR,7aR,11aS,11bR,13aR,13bR)-3a-(((1,1-dioxido-4-thiomorpholinyl)acetyl)amino)-1-isopropyl-5a,5b,8,8,11a-pentamethyl-2,3,3a,4,5,5a,5b,6,7,7a,8,11,11a,11b,12,13,13a,13b-octadecahydro-1H-cyclopenta[a]chrysen-9-yl)benzoic acid] | < 100 nM
CC(C)[C@@H]1CC[C@]2(NC(=O)CN3CCS(=O)(=O)CC3)CC[C@]3(C)[C@H](CC[C@@H]4[C@@]5(C)CC[C@H](c6ccc(C(=O)O)cc6)C(C)(C)[C@@H]5CC[C@]43C)[C@@H]12 [Example 130, 4-((1S,3aS,5aR,5bR,7aS,9S,11aS,11bR,13aR,13bR)-3a-(((1,1-dioxido-4-thiomorpholinyl)acetyl)amino)-1-isopropyl-5a,5b,8,8,11a-pentamethylicosahydro-1H-cyclopenta[a]chrysen-9-yl)benzoic acid] | < 100 nM
C=C(C)[C@@H]1CC[C@]2(NC(=O)C(=O)O)CC[C@]3(C)[C@H](CC[C@@H]4[C@@]5(C)CC=C(c6ccc(C(=O)O)cc6)C(C)(C)[C@@H]5CC[C@]43C)[C@@H]12 [Example 130-1, 4-((1R,3aS,5aR,5bR,7aR,11aS,11bR,13aR,13bR)-3a-(carboxyformamido)-5a,5b,8,8,11a-pentamethyl-1-(prop-1-en-2-yl)-2,3,3a,4,5,5a,5b,6,7,7a,8,11,11a,11b,12,13,13a,13b-octadecahydro-1H-cyclopenta[a]chrysen-9-yl)benzoic acid] | > 100 nM
C=C(C)[C@@H]1CC[C@]2(NC(=O)C3(NC(=O)OC(C)(C)C)CC3)CC[C@]3(C)[C@H](CC[C@@H]4[C@@]5(C)CC=C(c6ccc(C(=O)O)cc6)C(C)(C)[C@@H]5CC[C@]43C)[C@@H]12 [Example 130-2, 4-((1R,3aS,5aR,5bR,7aR,11aS,11bR,13aR,13bR)-3a-(1-(tert-butoxycarbonylamino)cyclopropanecarboxamido)-5a,5b,8,8,11a-pentamethyl-1-(prop-1-en-2-yl)-2,3,3a,4,5,5a,5b,6,7,7a,8,11,11a,11b,12,13,13a,13b-octadecahydro-1H-cyclopenta[a]chrysen-9-yl)benzoic acid] | < 100 nM
C=C(C)[C@@H]1CC[C@]2(NC(=O)[C@@H]3C[C@H](NC(=O)OCc4ccccc4)C3(C)C)CC[C@]3(C)[C@H](CC[C@@H]4[C@@]5(C)CC=C(c6ccc(C(=O)O)cc6)C(C)(C)[C@@H]5CC[C@]43C)[C@@H]12 [Example 130-3, 4-((1R,3aS,5aR,5bR,7aR,11aS,11bR,13aR,13bR)-3a-((1R,3S)-3-(((benzyloxy)carbonyl)amino)-2,2-dimethylcyclobutanecarboxamido)-5a,5b,8,8,11a-pentamethyl-1-(prop-1-en-2-yl)-2,3,3a,4,5,5a,5b,6,7,7a,8,11,11a,11b,12,13,13a,13b-octadecahydro-1H-cyclopenta[a]chrysen-9-yl)benzoic acid] | < 100 nM
C=C(C)[C@@H]1CC[C@]2(NS(=O)(=O)Cc3ccccn3)CC[C@]3(C)[C@H](CC[C@@H]4[C@@]5(C)CC=C(c6ccc(C(=O)O)cc6)C(C)(C)[C@@H]5CC[C@]43C)[C@@H]12 [Example 131, 4-((1R,3aS,5aR,5bR,7aR,11aS,11bR,13aR,13bR)-5a,5b,8,8,11a-pentamethyl-1-(prop-1-en-2-yl)-3a-(pyridin-2-ylmethylsulfonamido)-2,3,3a,4,5,5a,5b,6,7,7a,8,11,11a,11b,12,13,13a,13b-octadecahydro-1H-cyclopenta[a]chrysen-9-yl)benzoic acid] | < 100 nM
C=C(C)[C@@H]1CC[C@]2(NCc3ccnc(F)c3)CC[C@]3(C)[C@H](CC[C@@H]4[C@@]5(C)CC=C(c6ccc(C(=O)O)cc6)C(C)(C)[C@@H]5CC[C@]43C)[C@@H]12 [Example 132, 4-((1R,3aS,5aR,5bR,7aR,11aS,11bR,13aR,13bR)-3a-((2-fluoropyridin-4-yl)methylamino)-5a,5b,8,8,11a-pentamethyl-1-(prop-1-en-2-yl)-2,3,3a,4,5,5a,5b,6,7,7a,8,11,11a,11b,12,13,13a,13b-octadecahydro-1H-cyclopenta[a]chrysen-9-yl)benzoic acid] | < 100 nM

Source: US20140343000A1 (priority 2011, published 2014)
